According to US8735322B2, “Herbicides” (Syngenta Limited, priority 2008, dated 2014):

How the values were obtained:
Type in all cases: in vivo
[1] = tested on: Setaria faberi (SETFA); assay: Example A pre-emergence herbicidal activity, glasshouse pot test; settings: 480 h, rate 500 g/ha, evaluated 20 days later, 100=total damage to plant, 0=no damage to plant
Protocol: (§1) Seeds of a variety of test species were sown in standard soil in pots. After cultivation for one day (pre-emergence) or after 10 days cultivation (post-emergence) under controlled conditions in a glasshouse, the plants were sprayed with an aqueous spray solution derived from the formulation of the technical active ingredient in 0.6 ml acetone and 45 ml formulation solution containing 10.6% Emulsogen EL (Registry number 61791-12-6), 42.2% N-methylpyrrolidone, 42.2% dipropylene glycol monomethyl ether (Registry number 34590-94-8) and 0.2% X-77 (Registry number 11097-66-8). The test plants were then grown in a greenhouse under optimum conditions until, 15 days later for post-emergence and 20 days for pre-emergence, the test was evaluated (100=total damage to plant; 0=no damage to plant). Alopecurus myosuroides (ALOMY), Avena fatua (AVEFA), Lolium perenne (LOLPE), Setaria faberi (SETFA), Digitaria sanguinalis (DIGSA), Echinochloa crus-galli (ECHCG) Pre-Emergence Activity

[2] = tested on: Alopecurus myosuroides (ALOMY); assay: as above; settings: 480 h, rate 500 g/ha, evaluated 20 days later, 100=total damage to plant, 0=no damage to plant
Protocol: as §1

[3] = tested on: Digitaria sanguinalis (DIGSA); assay: as above; settings: 480 h, rate 500 g/ha, evaluated 20 days later, 100=total damage to plant, 0=no damage to plant
Protocol: as §1

[4] = tested on: Avena fatua (AVEFA); assay: as above; settings: 480 h, rate 500 g/ha, evaluated 20 days later, 100=total damage to plant, 0=no damage to plant
Protocol: as §1

[5] = tested on: Lolium perenne (LOLPE); assay: as above; settings: 480 h, rate 500 g/ha, evaluated 20 days later, 100=total damage to plant, 0=no damage to plant
Protocol: as §1

[6] = tested on: Echinochloa crus-galli (ECHCG); assay: as above; settings: 480 h, rate 500 g/ha, evaluated 20 days later, 100=total damage to plant, 0=no damage to plant
Protocol: as §1

[7] = tested on: Setaria faberi (SETFA); assay: Example A post-emergence herbicidal activity, glasshouse pot test; settings: 360 h, evaluated 15 days after spraying, read-out: herbicidal damage SETFA (100=total damage to plant; 0=no damage to plant); for pest or weed control at 500 g/ha: rate 500 g/ha; for pest or weed control at 125 g/ha: rate 125 g/ha
Protocol: as §1, with “Post Emergency” for “Pre-Emergence”

[8] = tested on: Alopecurus myosuroides (ALOMY); assay: as above; settings: 360 h, evaluated 15 days after spraying, read-out: herbicidal damage ALOMY (100=total damage to plant; 0=no damage to plant); for pest or weed control at 500 g/ha: rate 500 g/ha; for pest or weed control at 125 g/ha: rate 125 g/ha
Protocol: as §1, with “Post Emergency” for “Pre-Emergence”

[9] = tested on: Digitaria sanguinalis (DIGSA); assay: as above; settings: 360 h, evaluated 15 days after spraying, read-out: herbicidal damage DIGSA (100=total damage to plant; 0=no damage to plant); for pest or weed control at 500 g/ha: rate 500 g/ha; for pest or weed control at 125 g/ha: rate 125 g/ha
Protocol: as §1, with “Post Emergency” for “Pre-Emergence”

[10] = tested on: Avena fatua (AVEFA); assay: as above; settings: 360 h, evaluated 15 days after spraying, read-out: herbicidal damage AVEFA (100=total damage to plant; 0=no damage to plant); for pest or weed control at 500 g/ha: rate 500 g/ha; for pest or weed control at 125 g/ha: rate 125 g/ha
Protocol: as §1, with “Post Emergency” for “Pre-Emergence”

[11] = tested on: Lolium perenne (LOLPE); assay: as above; settings: 360 h, evaluated 15 days after spraying, read-out: herbicidal damage LOLPE (100=total damage to plant; 0=no damage to plant); for pest or weed control at 500 g/ha: rate 500 g/ha; for pest or weed control at 125 g/ha: rate 125 g/ha
Protocol: as §1, with “Post Emergency” for “Pre-Emergence”

[12] = tested on: Echinochloa crus-galli (ECHCG); assay: as above; settings: 360 h, evaluated 15 days after spraying, read-out: herbicidal damage ECHCG (100=total damage to plant; 0=no damage to plant); for pest or weed control at 500 g/ha: rate 500 g/ha; for pest or weed control at 125 g/ha: rate 125 g/ha
Protocol: as §1, with “Post Emergency” for “Pre-Emergence”

Row | SMILES | pest or weed control at 500 g/ha [1] | pest or weed control at 500 g/ha [2] | pest or weed control at 500 g/ha [3] | pest or weed control at 500 g/ha [4] | pest or weed control at 500 g/ha [5] | pest or weed control at 500 g/ha [6] | pest or weed control at 500 g/ha [7] | pest or weed control at 500 g/ha [8] | pest or weed control at 500 g/ha [9] | pest or weed control at 500 g/ha [10] | pest or weed control at 500 g/ha [11] | pest or weed control at 500 g/ha [12] | pest or weed control at 125 g/ha [7] | pest or weed control at 125 g/ha [8] | pest or weed control at 125 g/ha [9] | pest or weed control at 125 g/ha [10] | pest or weed control at 125 g/ha [11] | pest or weed control at 125 g/ha [12]
1 | CCc1cc(C)cc(CC)c1C1=C(O)CC(CC2CCOCC2)CC1=O (stereo not drawn) [Compound A-5, 2-(2,6-diethyl-4-methylphenyl)-5-(tetrahydropyran-4-ylmethyl)cyclohexane-1,3-dione] | 100% | 100% | 100% | 100% | 100% | 100% | 100% | 90% | 90% | 90% | 90% | 100% |  |  |  |  |  | 
2 | CCc1cc(C)cc(CC)c1C1=C(O)CC(CC2OCCCO2)CC1=O (stereo not drawn) [Compound A-7] | 80% | 100% | 100% | 100% | 100% | 100% | 80% | 90% | 80% | 100% | 90% | 100% |  |  |  |  |  | 
3 | CCc1cc(C)cc(CC)c1C1=C(O)CC(CC2OCCO2)CC1=O (stereo not drawn) [Compound A-6, 2-(2,6-diethyl-4-methylphenyl)-5-([1,3]dioxolan-2-ylmethyl)cyclohexane-1,3-dione] | 80% | 90% | 100% | 60% | 70% | 100% | 80% | 80% | 90% | 100% | 80% | 100% |  |  |  |  |  | 
4 | Cc1cc(C)c(C2=C(O)CC(CC3CCOCC3)CC2=O)c(C)c1 (stereo not drawn) [Compound A-9] | 90% | 100% | 100% | 60% | 100% | 70% | 80% | 80% | 70% | 70% | 80% | 90% |  |  |  |  |  | 
5 | CCc1cc(CC)c(C2=C(O)CC(CC3CCOCC3)CC2=O)c(CC)c1 (stereo not drawn) [Compound A-19] | 100% | 100% | 100% | 60% | 100% | 100% |  |  |  |  |  |  | 60% | 70% | 60% | 20% | 70% | 70%
6 | CCc1cc(C)cc(CC)c1C1=C(O)CC(C(C)C2CCOC2)CC1=O (stereo not drawn) [Compound A-18] | 100% | 90% | 100% | 100% | 100% | 100% |  |  |  |  |  |  | 50% | 100% | 80% | 90% | 100% | 100%
